Data: US6413990B1, “Arylsulphonamide-substituted benzimidazoles having tryptase-inhibiting activity” (Boehringer Ingelheim Pharma KG, priority 1999, dated 2002)
Where a name gives a salt, the structure may show the parent alone.

Molecular target: T1, rh beta tryptase (Homo sapiens, UniProt Q15661)
T1 construct: purchased Promega
Experiment: tryptase inhibition test (cleavage of N-p-tosyl-Gly-Pro-Lys-para-nitroaniline, p-nitroaniline measured at 405 nm)
Type: biochemical
Conditions: Tris HCl buffer pH 7.4 with calcium and heparin, 37° C., substrate 0.6 mM, 5 minutes pre-incubation, 5 minutes incubation
Experimental: The compounds according to the invention are characterised by their tryptase-inhibiting activity. This ability to inhibit tryptase was investigated using the test described below.
The measurement is carried out in Tris HCl buffer (100 mM), which additionally contains calcium (5 mM) and heparin ([…]), at pH 7.4. The standard used is rh beta tryptase which may be obtained commercially from Promega, for example. The substrate used is N-p-tosyl-Gly-Pro-Lys-para-nitroaniline in a concentration of 0.6 mM. The substrate is digested with tryptase to form p-nitroaniline which can be measured at 405 nm. Usually, an incubation period of 5 minutes and an incubation temperature of 37° C. are chosen. The enzyme activity used is 0.91 U/ml. The measurements are carried out in an Autoanalyser (Cobas Bio) made by Hofmann LaRoche. The potential inhibitory substances are used in concentrations of 10 μM in the screening, the inhibition of the tryptase being given in percent. The IC50 is determined at over 70% inhibition (concentration at which 50% of the enzyme activity is inhibited). After 5 minutes pre-incubation of the potential inhibitory substances, the substrate is added to start the reaction, the formation of p-nitroaniline being taken as a measurement of the enzyme activity after 5 minutes, after testing the linearity.
The data obtained after carrying out the tests described above (IC50 values) can be found in Table 2.

T1 sequence (Q15661 31-275): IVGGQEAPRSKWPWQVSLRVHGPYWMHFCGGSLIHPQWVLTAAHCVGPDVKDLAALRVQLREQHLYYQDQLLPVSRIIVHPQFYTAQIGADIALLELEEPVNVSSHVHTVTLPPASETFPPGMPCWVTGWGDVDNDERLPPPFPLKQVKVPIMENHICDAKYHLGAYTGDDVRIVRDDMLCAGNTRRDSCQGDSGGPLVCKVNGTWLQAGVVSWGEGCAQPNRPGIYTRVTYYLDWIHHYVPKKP

Row | Structure (SMILES) | IC50
1 | CCN(CC)CCN(c1ccc2c(c1)nc(CCc1ccc(C(=N)N)cc1)n2C)S(=O)(=O)c1cccc(OC)c1 [Example 5, N-{2-[2-(4-amidinophenyl)-ethyl]-1-methyl-benzimidazol-5-yl}-N-diethylaminoethyl-(3-methoxy-benzenesulphonamide)-hydrochloride] | 24 nM
2 | CCN(CC)CCN(c1ccc2c(c1)nc(CCc1ccc(C(=N)N)cc1)n2C)S(=O)(=O)c1cc(C(F)(F)F)cc(C(F)(F)F)c1 [Example 16, N-{2-[2-(4-amidinophenyl)-ethyl]-1-methyl-benzimidazol-5-yl}-N-2-diethylaminoethyl-[3,5-di-(trifluoromethyl)-benzenesulphonamide] dihydrochloride] | 25 nM
3 | CCN(CC)CCN(c1ccc2c(c1)nc(CCc1ccc(C(=N)N)cc1)n2C)S(=O)(=O)c1cccc(C(F)(F)F)c1 [Example 18, N-{2-[2-(4-amidinophenyl)-ethyl]-1-methyl-benzimidazol-5-yl}-N-2-diethylaminoethyl-(3-trifluoromethyl-benzenesulphonamide) dihydrochloride] | 43 nM
4 | CCN(CC)CCN(c1ccc2c(c1)nc(CCc1ccc(C(=N)N)cc1)n2C)S(=O)(=O)c1cccc(C(C)(C)c2ccccc2)c1 [Example 19, N-{2-[2-(4-amidinophenyl)-ethyl]-1-methyl-benzimidazol-5-yl}-N-2-diethylaminoethyl-[3-(1-methyl-1-phenyl-ethyl)-benzenesulphonamide] dihydrochloride] | 8.8 nM
5 | CN(C)c1cccc2c(S(=O)(=O)N(CCN)c3ccc4c(c3)nc(CCc3ccc(C(=N)N)cc3)n4C)cccc12 [Example 20, N-{2-[2-(4-amidinophenyl)-ethyl]-1-methyl-benzimidazol-5-yl}-N-aminoethyl-(dansylamide) dihydrochloride] | 22 nM
6 | CN(C)c1cccc2c(S(=O)(=O)N(Cc3ccccn3)c3ccc4c(c3)nc(CCc3ccc(C(=N)N)cc3)n4C)cccc12 [Example 22, N-{2-[2-(4-amidinophenyl)-ethyl]-1-methyl-benzimidazol-5-yl}-N-pyrid-2-ylmethyl-(dansylamide) dihydrochloride] | 14 nM
7 | CN(C)c1cccc2c(S(=O)(=O)N(Cc3cccnc3)c3ccc4c(c3)nc(CCc3ccc(C(=N)N)cc3)n4C)cccc12 [Example 23, N-{2-[2-(4-amidinophenyl)-ethyl]-1-methyl-benzimidazol-5-yl}-N-pyrid-3-ylmethyl-(dansylamide) dihydrochloride] | 13 nM
8 | CCN(CC)CCN(c1ccc2c(c1)nc(CCc1ccc(C(=N)N)cc1)n2C)S(=O)(=O)c1cccc2cccc(Cl)c12 [Example 24, N-{2-[2-(4-amidinophenyl)-ethyl]-1-methyl-benzimidazol-5-yl}-N-diethylaminoethyl-(8-chloronaphth-1-ylsulphonamide) dihydrochloride] | 13 nM
9 | CN(C)c1cccc2c(S(=O)(=O)N(Cc3ccncc3)c3ccc4c(c3)nc(CCc3ccc(C(=N)N)cc3)n4C)cccc12 [Example 25, N-{2-[2-(4-amidinophenyl)-ethyl]-1-methyl-benzimidazol-5-yl}-N-pyrid-4-ylmethyl-(dansylamide) dihydrochloride] | 36 nM
10 | Cn1c(CCc2ccc(C(=N)N)cc2)nc2cc(N(Cc3ccccc3)S(=O)(=O)c3ccc(C(C)(C)C)cc3)ccc21 [Example 26, N-{2-[2-(4-amidinophenyl)-ethyl]-1-methyl-benzimidazol-5-yl}-N-benzyl-(4-tert-butyl-benzenesulphonamide) dihydrochloride] | 7.6 nM
11 | CCN(CC)CCN(c1ccc2c(c1)nc(CCc1ccc(C(=N)N)cc1)n2C)S(=O)(=O)c1ccc2cc(OC)ccc2c1 [Example 27, N-{2-[2-(4-amidinophenyl)-ethyl]-1-methyl-benzimidazol-5-yl}-N-diethylaminoethyl-(6-methoxy-naphth-2-ylsulphonamide) diacetate] | 17.3 nM

Next, values leading:

Row | IC50 | Structure (SMILES)
12 | 9.7 nM | CCOC(=O)c1ccc(S(=O)(=O)N(CCN(CC)CC)c2ccc3c(c2)nc(CCc2ccc(C(=N)N)cc2)n3C)cc1 [Example 1, N-{2-[2-(4-amidinophenyl)-ethyl]-1-methyl-benzimidazol-5-yl}-N-diethylaminoethyl-(4-ethoxycarbonyl-benzenesulphonamide)-hydrochloride]
13 | 17 nM | CCN(CC)CCN(c1ccc2c(c1)nc(CCc1ccc(C(=N)N)cc1)n2C)S(=O)(=O)c1cccc(Br)c1 [Example 3, N-{2-[2-(4-amidinophenyl)-ethyl]-1-methyl-benzimidazol-5-yl}-N-diethylaminoethyl-(3-bromo-benzenesulphonamide)-hydrochloride]
14 | 23 nM | CCN(CC)CCN(c1ccc2c(c1)nc(CCc1ccc(C(=N)N)cc1)n2C)S(=O)(=O)c1ccc([N+](=O)[O-])cc1 [Example 4, N-{2-[2-(4-amidinophenyl)-ethyl]-1-methyl-benzimidazol-5-yl}-N-diethylaminoethyl-(4-nitro-benzenesulphonamide)-hydrochloride]
15 | 30 nM | CCN(CC)CCN(c1ccc2c(c1)nc(CCc1ccc(C(=N)N)cc1)n2C)S(=O)(=O)c1cccc(C)c1 [Example 6, N-{2-[2-(4-amidinophenyl)-ethyl]-1-methyl-benzimidazol-5-yl}-N-diethylaminoethyl-(3-methyl-benzenesulphonamide)-hydrochloride]
16 | 30 nM | CCN(CC)CCN(c1ccc2c(c1)nc(CCc1ccc(C(=N)N)cc1)n2C)S(=O)(=O)c1cccc(Cl)c1 [Example 7, N-{2-[2-(4-amidinophenyl)-ethyl]-1-methyl-benzimidazol-5-yl}-N-diethylaminoethyl-(3-chloro-benzenesulphonamide)-hydrochloride]
17 | 34 nM | CCN(CC)CCN(c1ccc2c(c1)nc(CCc1ccc(C(=N)N)cc1)n2C)S(=O)(=O)c1ccc(N)cc1 [Example 8, N-{2-[2-(4-amidinophenyl)-ethyl]-1-methyl-benzimidazol-5-yl}-N-diethylaminoethyl-(4-amino-benzenesulphonamide)-tetrahydrochloride]
18 | 44 nM | CCN(CC)CCN(c1ccc2c(c1)nc(CCc1ccc(C(=N)N)cc1)n2C)S(=O)(=O)c1ccc(NC(C)=O)cc1 [Example 9, N-{2-[2-(4-amidinophenyl)-ethyl]-1-methyl-benzimidazol-5-yl}-N-diethylaminoethyl-(4-acetylamino-benzenesulphonamide)]
19 | 280 nM | CCN(CC)CCN(c1ccc2c(c1)nc(CCc1ccc(C(=N)N)cc1)n2C)S(=O)(=O)c1ccc2cc(O)ccc2c1 [Example 17, N-{2-[2-(4-amidinophenyl)-ethyl]-1-methyl-benzimidazol-5-yl}-N-2-diethylaminoethyl-(6-hydroxy-naphth-2-ylsulphonamide) dihydrochloride]
20 | 4.1 nM | CCN(CC)CCN(c1ccc2c(c1)nc(CCc1ccc(C(=N)N)cc1)n2C)S(=O)(=O)c1ccc(C(C)(C)C)cc1 [Example 21, N-{2-[2-(4-amidinophenyl)-ethyl]-1-methyl-benzimidazol-5-yl}-N-diethylaminoethyl-(4-tert-butyl-benzenesulphonamide) dihydrochloride]
21 | 44 nM | CCN(CC)CCN(c1ccc2c(c1)nc(CCc1ccc(C(=N)N)cc1)n2C)S(=O)(=O)c1cccc([N+](=O)[O-])c1 [Example 28, N-{2-[2-(4-amidinophenyl)-ethyl]-1-methyl-benzimidazol-5-yl}-N-2-diethylaminoethyl-(3-nitro-benzenesulphonamide) dihydrochloride]
22 | 52 nM | CCN(CC)CCN(c1ccc2c(c1)nc(CCc1ccc(C(=N)N)cc1)n2C)S(=O)(=O)c1cccc(N)c1 [Example 29, N-{2-[2-(4-amidinophenyl)-ethyl]-1-methyl-benzimidazol-5-yl}-N-2-diethylaminoethyl-(3-amino-benzenesulphonamide) dihydrochloride]

Tested on: not given
Experiment: not given
Conditions: not given

Row | melting point | Structure (SMILES)
23 | 200 to 204 °C | CCN(CC)CCN(c1ccc2c(c1)nc(CCc1ccc(C(=N)N)cc1)n2C)S(=O)(=O)c1ccc(C(=O)O)cc1 (as salt: fumarate) [Example 14, N-{2-[2-(4-amidinophenyl)-ethyl]-1-methyl-benzimidazol-5-yl}-N-diethylaminoethyl-[4-carboxy-benzenesulphonamide]-fumarate]
24 | 190 to 205 °C | CCN(CC)CCN(c1ccc2c(c1)nc(CCc1ccc(C(=N)N)cc1)n2C)S(=O)(=O)c1ccc(N)cc1 (as salt: hydrochloride) [Example 8, N-{2-[2-(4-amidinophenyl)-ethyl]-1-methyl-benzimidazol-5-yl}-N-diethylaminoethyl-(4-amino-benzenesulphonamide)-tetrahydrochloride]
25 | 190 to 200 °C | CCN(CC)CCN(c1ccc2c(c1)nc(CCc1ccc(C(=N)N)cc1)n2C)S(=O)(=O)c1ccc(OC)cc1 (as salt: hydrochloride) [Example 12, N-{2-[2-(4-amidinophenyl)-ethyl]-1-methyl-benzimidazol-5-yl}-N-diethylaminoethyl-(4-methoxy-benzenesulphonamide)-trihydrochloride]
26 | 222 to 225 °C | CN(C)c1cccc2c(S(=O)(=O)N(C)c3ccc4c(c3)nc(CCc3ccc(C(=N)N)cc3)n4C)cccc12 (as salt: hydrochloride) [Example 13, N-{2-[2-(4-amidinophenyl)-ethyl]-1-methyl-benzimidazol-5-yl}-N-methyl-(dansylamide)-hydrochloride]
